{"source": "patent US11512073B2", "about": "“Benzimidazole derivatives, pharmaceutical composition comprising the same, and use thereof” (Chongqing University of Arts and Sciences, priority 2020, dated 2022)", "key": {"[1]": {"test_system": "MDA-MB-231 and MDA-MB-468 cells", "assay": "Cell cycle analysis by flow cytometry", "format": "cell-based, Human", "conditions": "48 h", "description": "Cells in a logarithmic growth phase were harvested and seeded into six-well plates with 30% cell density and cultured overnight in an incubator. Once adhered to the bottom of the plate, cells were treated with different doses of compound 7a for 48 h, and then employed in flow cytometry analysis. For cell cycle assay, the collected cells were washed with phosphate-buffered saline (PBS) and fixed with 70% cold ethanol in 4° C. for 24 h. After washing three times of PBS, the fixed cells were incubated in 200 μL PBS solution containing 1 μL propidium iodide (BD, CA, USA) and 1 μL RNase (Sigma Aldrich, USA) at 37° C. for 0.5 h. Finally, cells were analyzed using BD Accuri™ C6 flow cytometry (BD Biosciences, USA). For the cell apoptosis assay, after the cells were harvested and washed twice with PBS, the percentage of apoptotic cells were measured using an Annexin V-FITC/PI Apoptosis Assay Kit (BD Biosciences, USA). The BD Accuri™ C6 flow cytometry was used to analyze the apoptosis process. The FlowJo software was used to analyze the cell cycle arrest and apoptotic rate."}, "MDA-MB-231 xenograft": {"test_system": "MDA-MB-231 xenograft", "assay": "Animal xenograft model", "format": "in vivo, NOD/SCID mice", "description": "For the in vivo assay, six-week-old female NOD/SCID mice weighing 16-20 g were used, which were maintained in the SPF (Specific Pathogen Free) laboratory animal environment and under a normal daily light/dark cycle. During the experiment, 1×10^7 MDA-MB-231 cells were suspended in 100 μL serum-free DMEM and injected subcutaneously into the left groin region of the mice. Tumor volume was measured regularly. On day 22 post-tumor implanted, the NOD/SCID mice were randomly divided into three groups (n=6) on the basis of their tumor volume to insure a similar starting tumor volume of all the groups. The appropriate dose of compound 7a (5 mg/kg, 15 mg/kg) dissolved in 100 μL solvent (10% ethanol, 40% PEG400 and 50% corn oil) was administered every 3 days by intraperitoneal injection when the xenograft tumor volume attained around 100 mm^3, while the control group received equal volume solvent every 3 days in a similar method. The tumor size was measured once every 3 days with a caliper, and tumor size was calculated using the standard formula (L×W^2)/2, where L and W represents the length and width, respectively. The mice were sacrificed on Day 46 (Day 25 after treatment), and the xenograft tumors were obtained and weighed. Then the tumor tissues were collected and divided into two portions, one was fixed in 4% PFA and embedded by paraffin for Hematoxylin & eosin (HE) and immunohistochemical staining, anther was performed immunoblotting.\nFor immunohistochemistry, the embedded samples were sectioned and incubated with anti-Ki-67 overnight at 4° C. Then, the sections were incubated with HRP labeled secondary antibody and were observed under the Olympus BX73 microscope. Five fields were randomly selected to evaluate the positivity."}}}
{"smiles": "O=C(NC1CCCCC1)c1[nH]cnc1-c1nc2ccccc2[nH]1", "note": "[Compound 7a]", "values": [{"measurement": "cell cycle distribution", "setting": "[1]", "result": "induced cell cycle arrest at S-phase"}, {"measurement": "tumor growth (tumor volume and weight)", "setting": "MDA-MB-231 xenograft; 5 and 15 mg/Kg, intraperitoneal, after 24 days, dose dependent", "result": "considerably suppressed human TNBC tumor growth"}, {"measurement": "size of harvested tumors", "setting": "MDA-MB-231 xenograft; 5 and 15 mg/kg, intraperitoneal, every 3 days", "result": "dramatically smaller than tumors from vehicle-treated control mice"}, {"measurement": "LC3B-II, p62, γH2AX and PARP in tumor tissue", "setting": "MDA-MB-231 xenograft; immunoblotting of tumors, 5 and 15 mg/kg", "result": "concentration-dependent upregulation of LC3B-II, p62, γH2AX and PARP"}, {"measurement": "cell count (H&E) and Ki67 in tumor tissue", "setting": "MDA-MB-231 xenograft; immunohistochemistry of tumors", "result": "significant decrease in cell count and Ki67"}]}
